Literature values in patent US8470366B2, “Nicotine containing soft gelatin pastilles” (priority 2010, dated 2013).

How the values were obtained:
[1] = background statement
[2] = background statement; remark: listed apart in the source

SMILES	Physiological activity relative to (−) nicotine [1]	Half life of nicotine in the body [2]
CN1CCCC1c1cccnc1 (single isomer, unassigned; (+)) [(+) nicotine]	one-half	–
CN1CCCC1c1cccnc1 (centres unmarked) [nicotine, Nicotine]	–	around two
